# Experiments:
# [1] = Drug level in kidney of beagle dog treated with [14C]casopitant mesylate at 40 mg/kg/day, po administered as repeat dose measured after 24 hrs on day 14 by HPLC-MS/MS method relative to [14C]casopitant mesylate radioactivity; assay type: ADME, organism-based, Canis lupus familiaris; parameters: dosed compound name [14C]Casopitant, route oral; details: in vivo
# Canis familiaris [2] = assay: Tmax in beagle dog treated with [14C]casopitant mesylate at 40 mg/kg/day, po administered as repeat dose measured after 26 weeks by HPLC-MS/MS method; assay type: ADME, organism-based, Canis lupus familiaris; parameters: dosed compound name [14C]Casopitant, route oral; details: in vivo, 4368 h
# [3] = Drug level in myocardium of beagle dog treated with [14C]casopitant mesylate at 40 mg/kg/day, po administered as repeat dose measured after 26 weeks by HPLC-MS/MS method; assay type: ADME, organism-based, Canis lupus familiaris; parameters: dosed compound name [14C]Casopitant, route oral; details: in vivo, 4368 h
# [4] = Drug level in lung of beagle dog treated with [14C]casopitant mesylate at 40 mg/kg/day, po administered as repeat dose measured after 24 hrs on day 14 by HPLC-MS/MS method relative to [14C]casopitant mesylate radioactivity; assay type: ADME, organism-based, Canis lupus familiaris; parameters: dosed compound name [14C]Casopitant, route oral; details: in vivo
# [5] = Drug level in skeletal muscle of beagle dog treated with [14C]casopitant mesylate at 40 mg/kg/day, po administered as repeat dose measured after 24 hrs on day 14 by HPLC-MS/MS method relative to [14C]casopitant mesylate radioactivity; assay type: ADME, organism-based, Canis lupus familiaris, Muscle tissue; parameters: dosed compound name [14C]Casopitant, route oral; details: in vivo
# [6] = Drug level in myocardium of beagle dog treated with [14C]casopitant mesylate at 40 mg/kg/day, po administered as repeat dose measured after 13 weeks by HPLC-MS/MS method; assay type: ADME, organism-based, Canis lupus familiaris; parameters: dosed compound name [14C]Casopitant, route oral; details: in vivo, 2184 h
# [7] = Drug level in myocardium of beagle dog treated with [14C]casopitant mesylate at 40 mg/kg/day, po administered as repeat dose measured after 22 weeks post dosing withdrawal by HPLC-MS/MS method; assay type: ADME, organism-based, Canis lupus familiaris; parameters: dosed compound name [14C]Casopitant, route oral; details: in vivo, 3696 h
# Plasma [8] = assay: Drug level in plasma of beagle dog treated with [14C]casopitant mesylate at 40 mg/kg/day, po administered as repeat dose measured after 24 hrs on day 14 by HPLC-MS/MS method relative to [14C]casopitant mesylate radioactivity; assay type: ADME, organism-based, Canis lupus familiaris; parameters: dosed compound name [14C]Casopitant, route oral; details: in vivo
# Plasma [9] = assay: Drug level in beagle dog plasma treated with [14C]casopitant mesylate at 40 mg/kg/day, po administered as repeat dose measured during 24 hrs dosing interval on week 26 by HPLC-MS/MS method; assay type: ADME, organism-based, Canis lupus familiaris; parameters: dosed compound name [14C]Casopitant, route oral; details: in vivo
# [10] = Drug level in myocardium of beagle dog treated with [14C]casopitant mesylate at 40 mg/kg/day, po administered as repeat dose measured after 6 weeks by HPLC-MS/MS method; assay type: ADME, organism-based, Canis lupus familiaris; parameters: dosed compound name [14C]Casopitant, route oral; details: in vivo, 1008 h
# [11] = Drug level in myocardium of beagle dog treated with [14C]casopitant mesylate at 40 mg/kg/day, po administered as repeat dose measured after 24 hrs on day 14 by HPLC-MS/MS method relative to [14C]casopitant mesylate radioactivity; assay type: ADME, organism-based, Canis lupus familiaris; parameters: dosed compound name [14C]Casopitant, route oral; details: in vivo
# Canis familiaris [12] = assay: AUC (0 to t) in beagle dog treated with [14C]casopitant mesylate at 40 mg/kg/day, po administered as repeat dose measured after 26 weeks by HPLC-MS/MS method; assay type: ADME, organism-based, Canis lupus familiaris, Plasma; parameters: dosed compound name [14C]Casopitant, route oral; details: in vivo, 4368 h
# [13] = Drug level in myocardium of beagle dog treated with [14C]casopitant mesylate at 40 mg/kg/day, po administered as repeat dose measured after 20 weeks by HPLC-MS/MS method; assay type: ADME, organism-based, Canis lupus familiaris; parameters: dosed compound name [14C]Casopitant, route oral; details: in vivo, 3360 h
# Plasma [14] = assay: Drug level in plasma of Sprague-Dawley rat treated with [14C]casopitant mesylate at 60 mg/kg/day, po administered as repeat dose measured after 24 hrs on day 20 by HPLC-MS/MS method relative to [14C]casopitant mesylate radioactivity; assay type: ADME, organism-based; parameters: dosed compound name [14C]Casopitant, route oral; details: in vivo
# Canis familiaris [15] = assay: Cmax in beagle dog treated with [14C]casopitant mesylate at 40 mg/kg/day, po administered as repeat dose measured after 26 weeks by HPLC-MS/MS method; assay type: ADME, organism-based, Canis lupus familiaris; parameters: dose 40 mg/kg/day, dosed compound name [14C]Casopitant, route oral; details: in vivo, 4368 h
Compound recovery [1],Tmax (Canis familiaris [2]),Compound recovery [3],Compound recovery [4],Compound recovery [5],Compound recovery [6],Drug concentration in myocardium [7],Compound recovery (Plasma [8]),Compound recovery (Plasma [9]),Compound recovery [10],Compound recovery [11],AUCt (Canis familiaris [12]),Compound recovery [13],Compound recovery (Plasma [14]),Cmax (Canis familiaris [15]),SMILES
7%,8 h,11346 ng/g,11.9%,7.6%,7867 ng/g,< 50 ng/g,0.8%,metabolite_detected,3623 ng/g,3.4%,1.803 µg·h/mL,14215 ng/g,1.5%,0.082 µg/mL,Cc1cc(F)ccc1[C@H]1C[C@@H](N2CCNCC2)CCN1C(=O)N(C)[C@H](C)c1cc(C(F)(F)F)cc(C(F)(F)F)c1
2.2%,8 h,2416 ng/g,1.2%,3.5%,2010 ng/g,< 50 ng/g,4.1%,metabolite_detected,1517 ng/g,1.6%,21.248 µg·h/mL,3286 ng/g,1.2%,1.013 µg/mL,Cc1cc(F)ccc1[C@H]1C[C@@H](N2CCNC(=O)C2)CCN1C(=O)N(C)[C@H](C)c1cc(C(F)(F)F)cc(C(F)(F)F)c1

# Reference: ChEMBL document CHEMBL3526147, “Tissue distribution and characterization of drug-related material in rats and dogs after repeated oral administration of casopitant” (Drug Metab Dispos, 2011)
